For one assay, the system named is NCI-H1417 cells. The assay is described as follows: In vitro cell inhibition assay - H1417 cell proliferation (CellTiter-Glo). It is filed as cell-based. The following applies: Homo sapiens, NCI-H1417, H1417 small cell lung cancer cell proliferation. In short, it runs like this:
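Cells exposed to 8 compound concentrations (5-fold dilutions) in BEGM with 10% FBS for 7 days at 37° C., 5% CO2. Viable cells measured by CellTiter-Glo luminescence; inhibition versus no-inhibitor and no-cell controls, IC50 fitted.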

Another assay addresses HDAC8 (Homo sapiens (Human), UniProt Q9BY41). The assay is described as follows: In vitro enzyme inhibition assay - HDAC (HDAC-Glo I/II), HDAC8. It is filed as biochemical. The following applies: read-out: HDAC IC50 (nM) HDAC 8. Put shortly:
(§1)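 The compound, serially diluted 5-fold in DMSO across 8 concentrations starting from a 1 mM stock, was made up as 4× working solutions in HDAC buffer. It was then tested in the HDAC-Glo I/II system, and luminescence was recorded. IC50 values came from variable-slope four-parameter curves of inhibition rate.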

The next assay deals with pan-HDAC. The assay is described as follows: In vitro enzyme inhibition assay - HDAC (HDAC-Glo I/II), pan-HDAC. The format is biochemical. Put shortly:
as §1

A further assay concerns the target LSD1 (Homo sapiens (Human), UniProt O60341). Nature of the assay: In vitro enzyme inhibition assay - LSD1 (HTRF). It is filed as biochemical.
The next assay relates to NCI-H526 cells. Nature of the assay: In vitro cell inhibition assay - NCI-H526 cell proliferation (CellTiter-Glo). It is filed as cell-based. The following applies: Homo sapiens, NCI-H526, 120 h, H526 small cell lung cancer cell proliferation, 5 days. In short, it runs like this:
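NCI-H526 cells plated at 1×10^3 per well overnight, then treated with 8 concentrations (5-fold dilutions) in RPMI-640 with 10% FBS for 5 days at 37° C., 5% CO2. Viable cells quantified by CellTiter-Glo luminescence; IC50 fitted from inhibition rates relative to no-inhibitor and no-cell controls.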

The next assay deals with DU145 cells. Nature of the assay: In vitro cell inhibition assay - DU145 cell proliferation (CellTiter-Glo). The format is cell-based. The following applies: Homo sapiens, DU-145, Du145 prostate cancer cell proliferation. Put shortly:
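DU145 cells were seeded at 1×10^3 per well, exposed next day to an 8-point, 5-fold compound dilution series in RPMI-640 with 10% FBS, and incubated 6 days at 37° C. Viable cells were measured by CellTiter-Glo luminescence, and IC50 was fitted from inhibition rates relative to no-inhibitor and no-cell controls.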
For orientation: ATP-based viability assays read luminescence as a measure of living cells.

The target of the next assay is HDAC1 (Homo sapiens (Human), UniProt Q13547). The assay is described as follows: In vitro enzyme inhibition assay - HDAC (HDAC-Glo I/II), HDAC1. It is filed as biochemical. The following applies: read-out: HDAC IC50 (nM) HDAC 1. Put shortly:
as §1

Another assay concerns NCI-H69 cells. The assay is described as follows: In vitro cell inhibition assay - NCI-H69 cell proliferation (CellTiter-Glo). The format is cell-based. The following applies: Homo sapiens, NCI-H69, H69 small cell lung cancer cell proliferation. In short, it runs like this:
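Proliferation was assessed after a 7-day compound treatment of cells seeded at 1×10^3 per well. IC50 values came from fitting inhibition rates derived from CellTiter-Glo luminescence.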

Structures can show the parent of a compound that is named as a salt.

From patent US20250304549A1, “HYDROXYAMIDE DERIVATIVE AND USE THEREOF” (SICHUAN HUIYU PHARMACEUTICAL CO., LTD., priority 2022, published 2025) come the findings set out here.

Chain of HDAC1 (Q13547 whole entry): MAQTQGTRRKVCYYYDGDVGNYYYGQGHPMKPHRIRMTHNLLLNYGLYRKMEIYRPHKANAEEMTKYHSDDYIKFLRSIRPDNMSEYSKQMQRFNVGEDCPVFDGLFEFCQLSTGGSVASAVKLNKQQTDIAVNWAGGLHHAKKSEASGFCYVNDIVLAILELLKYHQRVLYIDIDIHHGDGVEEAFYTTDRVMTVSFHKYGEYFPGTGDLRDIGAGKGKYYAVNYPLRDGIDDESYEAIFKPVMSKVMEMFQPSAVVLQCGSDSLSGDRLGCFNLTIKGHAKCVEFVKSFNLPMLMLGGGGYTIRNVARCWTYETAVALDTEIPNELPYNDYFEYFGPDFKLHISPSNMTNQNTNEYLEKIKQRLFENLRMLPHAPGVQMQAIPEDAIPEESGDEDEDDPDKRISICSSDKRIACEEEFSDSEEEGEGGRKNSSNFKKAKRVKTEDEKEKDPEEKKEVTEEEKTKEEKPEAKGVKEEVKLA
Chain of HDAC8 (Q9BY41 whole entry): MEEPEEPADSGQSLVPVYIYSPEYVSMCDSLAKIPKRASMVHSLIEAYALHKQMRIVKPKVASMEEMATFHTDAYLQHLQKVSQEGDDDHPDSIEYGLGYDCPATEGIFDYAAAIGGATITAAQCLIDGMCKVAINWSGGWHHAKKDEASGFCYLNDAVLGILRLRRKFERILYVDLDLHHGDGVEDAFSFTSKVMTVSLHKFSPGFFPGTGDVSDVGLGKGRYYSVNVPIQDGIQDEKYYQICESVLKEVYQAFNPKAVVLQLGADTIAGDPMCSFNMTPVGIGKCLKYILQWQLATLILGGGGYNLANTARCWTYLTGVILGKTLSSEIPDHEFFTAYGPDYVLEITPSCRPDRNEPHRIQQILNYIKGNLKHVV

Broadly, the IC50 is the midpoint of a concentration-inhibition curve. For `N#Cc1ccc(-c2c(-c3ccc(OC(F)F)c(O)c3)cnc(N3CCC(NCc4ccc(/C=C/C(=O)NO)cc4)CC3)c2C#N)cc1F` [Example 124, (E)-3-(4-(((1-(3-Cyano-4-(4-cyano-3-fluorophenyl)-5-(4-(difluoromethoxy)-3-hydroxyphenyl)pyridin-2-yl))piperidin-4-yl)amino)methyl) phenyl)-N-hydroxyacrylamide formate], the IC50 was found to be 3.34 nM with NCI-H1417 cells; 179 nM at HDAC8; 7.69 nM against pan-HDAC; 1.63 nM on LSD1; 20.6 nM with NCI-H526 cells; 30.5 nM in the assay with DU145 cells. For the same compound, the IC50 came out at 3.95 nM on HDAC1 and 18.3 nM in the assay on NCI-H69 cells.
In the case of `N#Cc1ccc(-c2c(-c3ccc(Br)c(O)c3)cnc(N3CCC(NCc4ccc(/C=C/C(=O)NO)cc4)CC3)c2C#N)cc1F` [Example 127, (E)-3-(4-(((1-(5-(4-Bromo-3-hydroxyphenyl)-3-cyano-4-(4-cyano-3-fluorophenyl)pyridin-2-yl)piperidin-4-yl)amino)methyl)phenyl)-N-hydroxyacrylamide formate], the half-inhibitory concentration (IC50) in the assay on NCI-H1417 cells was 2.65 nM; on HDAC8 it was 423 nM; against pan-HDAC, 12.4 nM; on LSD1, 1.2 nM; in the assay on NCI-H526 cells it was 15.4 nM; in the assay with DU145 cells, 15.5 nM. The figures for the 50% inhibitory concentration (IC50) at HDAC1 and in the assay with NCI-H69 cells were 5.82 nM and 8.85 nM, respectively.
Turning to `COc1cc(F)c(-c2cnc(N3CCC(NCc4ccc(/C=C/C(=O)NO)cc4)CC3)c(C#N)c2-c2ccc(C#N)c(F)c2)cc1O` [Example 130, (E)-3-(4-((1-(3-Cyano-4-(4-cyano-3-fluorophenyl)-5-(2-fluoro-5-hydroxy-4-methoxyphenyl)pyridin-2-yl)piperidin-4-yl)amino)methyl) phenyl)-N-hydroxyacrylamide formate], the 50% inhibitory concentration (IC50) with NCI-H1417 cells was found to be 1.09 nM; at HDAC8, 220 nM; against pan-HDAC it was 6.13 nM; at LSD1 it was 1.89 nM; in the assay with NCI-H526 cells, 22.8 nM; in the assay with DU145 cells, 25 nM. Moreover, the results for the concentration for half-maximal inhibition (IC50) on HDAC1 and in the assay with NCI-H69 cells were 0.77 nM and 25.2 nM, respectively.
As for `N#Cc1ccc(-c2c(-c3ccc(CO)c(O)c3)cnc(N3CCC(NCc4ccc(/C=C/C(=O)NO)cc4)CC3)c2C#N)cc1F` [Example 131, (E)-3-(4-(((1-(3-Cyano-4-(4-cyano-3-fluorophenyl)-5-(3-hydroxy-4-(hydroxymethyl)phenyl)pyridin-2-yl)piperidin-4-yl)amino)methyl)phenyl)-N-hydroxyacrylamide formate], the IC50 in the assay on NCI-H1417 cells stood at 0.62 nM; on HDAC8, 46.6 nM; on pan-HDAC it was 1.57 nM; against LSD1, 1.31 nM; in the assay on NCI-H526 cells, 3.54 nM; in the assay with DU145 cells, 7.09 nM. The IC50 on HDAC1 turned out to be 0.22 nM; in the assay on NCI-H69 cells, 2.59 nM.
With `COc1ccc(-c2cnc(N3CCC(NCc4cnc(/C=C/C(=O)NO)cn4)CC3)c(C#N)c2-c2ccc(C#N)c(F)c2)cc1O` [Example 133, (E)-3-(5-(((1-(3-Cyano-4-(4-cyano-3-fluorophenyl)-5-(3-hydroxy-4-methoxyphenyl)pyridin-2-yl)piperidin-4-yl)amino)methyl)pyrazin-2-yl)-N-hydroxyacrylamide trifluoroacetate], the IC50 came to 5.42 nM in the assay with NCI-H1417 cells; 140 nM on HDAC8; 11.8 nM against pan-HDAC; 22 nM on LSD1; 45.8 nM with NCI-H526 cells; 128 nM in the assay with DU145 cells. Besides, the values for the half-maximal inhibitory concentration (IC50) on HDAC1 and in the assay with NCI-H69 cells were 1.45 nM and 25.5 nM, respectively.
For the compound `COc1ccc(-c2cnc(N3CCC(NCc4ccc(/C=C/C(=O)NO)cc4)CC3)c(C#N)c2-c2ccc(C#N)cc2F)cc1O` [Example 134, (E)-3-(4-(((1-(3-Cyano-4-(4-cyano-2-fluorophenyl)-5-(3-hydroxy-4-methoxyphenyl)pyridin-2-yl)piperidin-4-yl)amino)methyl)phenyl)-N-hydroxyacrylamide formate], the half-maximal inhibitory concentration (IC50) in the assay with NCI-H1417 cells amounted to 5.1 nM; at HDAC8 it was 46 nM; at pan-HDAC, 3.55 nM; at LSD1, 13.6 nM; in the assay with NCI-H526 cells, 13.8 nM; with DU145 cells it was 20.3 nM. For the same compound, the IC50 at HDAC1 was 0.32 nM; in the assay with NCI-H69 cells, 8.37 nM.
For the compound `COc1ccc(-c2cnc(N3CCC(NCc4ncc(/C=C/C(=O)NO)cn4)CC3)c(C#N)c2-c2ccc(C#N)c(F)c2)cc1O` [Example 135, (E)-3-(2-(((1-(3-Cyano-4-(4-cyano-3-fluorophenyl)-5-(3-hydroxy-4-methoxyphenyl)pyridin-2-yl)piperidin-4-yl)amino)methyl)pyrimidin-5-yl)-N-hydroxyacrylamide formate], the IC50 with NCI-H1417 cells came to 6 nM; at HDAC8, 1010 nM; against pan-HDAC it was 39.7 nM; against LSD1, 3.16 nM; in the assay on NCI-H526 cells, 200 nM; in the assay with DU145 cells, 1580 nM. The values for the half-maximal inhibitory concentration (IC50) on HDAC1 and in the assay with NCI-H69 cells were 17.3 nM and 199 nM, respectively.
For `N#Cc1ccc(-c2c(-c3ccc(O)c(O)c3)cnc(N3CCC(NCc4ccc(/C=C/C(=O)NO)cc4)CC3)c2C#N)cc1F` [Example 137, (E)-3-(4-(((1-(3-Cyano-4-(4-cyano-3-fluorophenyl)-5-(3,4-dihydroxyphenyl)pyridin-2-yl)piperidin-4-yl)amino)methyl)phenyl)-N-hydroxyacrylamide hydrochloride], the 50% inhibitory concentration (IC50) turned out to be 5.43 nM in the assay on NCI-H1417 cells; 107 nM on HDAC8; 6.04 nM at pan-HDAC; 27.8 nM on LSD1; 22.9 nM in the assay with NCI-H526 cells; 63.5 nM in the assay on DU145 cells. In addition, the half-inhibitory concentration (IC50) came out at 0.52 nM at HDAC1 and 7.01 nM in the assay on NCI-H69 cells.
Take `CC(C)(O)COc1ccc(-c2cnc(N3CCC(NCc4ccc(/C=C/C(=O)NO)cc4)CC3)c(C#N)c2-c2ccc(C#N)c(F)c2)cc1O` [Example 143, (E)-3-(4-(((1-(3-Cyano-4-(4-cyano-3-fluorophenyl)-5-(3-hydroxy-4-(2-hydroxy-2-methylpropoxy)phenyl)pyridin-2-yl)piperidin-4-yl)amino)methyl)phenyl)-N-hydroxyacrylamide formate]: the IC50 with NCI-H1417 cells came to 1.03 nM; on HDAC8 it was 111 nM; against pan-HDAC it was 1.7 nM; against LSD1 it was 0.1 nM; in the assay with NCI-H526 cells, 18.1 nM; in the assay on DU145 cells, 23.7 nM. Besides, the IC50 was 1.25 nM at HDAC1 and 16.8 nM in the assay on NCI-H69 cells.
Consider `COc1ccc(-c2cnc(N3CCC(NCc4ccc(/C=C/C(=O)NO)cc4)CC3)c(C)c2-c2ccc(C#N)c(F)c2)cc1O` [Example 144, (E)-3-(4-(((1-(4-(4-Cyano-3-fluorophenyl)-5-(3-hydroxy-4-methoxyphenyl)-3-methylpyridin-2-yl)piperidin-4-yl)amino)methyl)phenyl)-N-hydroxyacrylamide hydrochloride], for which the IC50 in the assay on NCI-H1417 cells was 11.2 nM; on HDAC8, 91.6 nM; on pan-HDAC, 0.86 nM; against LSD1, 1.07 nM; with NCI-H526 cells, 8.4 nM; in the assay with DU145 cells, 9.28 nM. Further, the values for the IC50 on HDAC1 and in the assay with NCI-H69 cells were 0.21 nM and 11.2 nM, respectively.
Consider `COc1ccc(-c2cnc(N3CCC(NCc4ccc(/C=C/C(=O)NO)cc4)CC3)c(C#N)c2-c2ccc([N+](=O)[O-])cc2)cc1O` [Example 150, (E)-3-(4-(((1-(3-Cyano-5-(3-hydroxy-4-methoxyphenyl)-4-(4-nitrophenyl)pyridin-2-yl)piperidin-4-yl)amino)methyl)phenyl)-N-hydroxyacrylamide formate], for which the half-maximal inhibitory concentration (IC50) stood at 5.53 nM in the assay with NCI-H1417 cells; 89.3 nM on HDAC8; 1.3 nM on pan-HDAC; 0.59 nM against LSD1; 9.84 nM in the assay on NCI-H526 cells; 9.26 nM with DU145 cells. In addition, the half-inhibitory concentration (IC50) on HDAC1 is 0.21 nM; in the assay with NCI-H69 cells it was 16.9 nM.
